The text below walks through data of ChEMBL document CHEMBL1127134, “Synthesis and antibacterial activity of (1R,5R,6R)-2-tert-butyl-6-(1-hydroxyethyl)oxapenem-3-carboxylic acid” (1993).

Assay type in all cases: functional
One assay has as its system Serratia. Kind of assay: Minimum inhibitory concentration required for the antibacterial activity against Serratia 16001.
The test system of the next assay is Providencia rettgeri. Put plainly: Minimum inhibitory concentration required for the antibacterial activity against Proteus rettgeri 1007.
Assay [1] relates to Staphylococcus aureus. Kind of assay: Minimum inhibitory concentration required for the antibacterial activity against Staphylococcus aureus 13N Munchen.
Assay [2] has as its system Peptostreptococcus anaerobius. Kind of assay: Minimum inhibitory concentration required for the antibacterial activity against Peptostrept. anaer. 222 I/82.
The test system of assay [3] is Klebsiella. Put plainly: Minimum inhibitory concentration required for the antibacterial activity against Klebsiella 63.
The test system of assay [4] is Staphylococcus aureus. Put plainly: Minimum inhibitory concentration required for the antibacterial activity against Staphylococcus aureus 133.
Assay [5] relates to Bacteroides fragilis. Kind of assay: Minimum inhibitory concentration required for the antibacterial activity against Bacillus fragilis DSM 2151.
For assay [6], the system named is Enterococcus faecalis. Put plainly: Minimum inhibitory concentration required for the antibacterial activity against Streptococcus faecalis 27101.
Assay [7] has as its system Clostridium perfringens. Put plainly: Minimum inhibitory concentration required for the antibacterial activity against Clostridium perfringens 24071.
In assay [8] the test system is Bacteroides thetaiotaomicron. Put plainly: Minimum inhibitory concentration required for the antibacterial activity against Bacillus thetaiotaomicron 235 Munchen.
In assay [9] the test system is Bacteroides fragilis. Kind of assay: Minimum inhibitory concentration required for the antibacterial activity against Bacillus fragilis 4891/91 Kr.
Assay [10] relates to Clostridium perfringens. Put plainly: Minimum inhibitory concentration required for the antibacterial activity against Clostridium perfringens DSM 756.
In assay [11] the test system is Escherichia coli. Kind of assay: Minimum inhibitory concentration required for the antibacterial activity against Escherichia coli 4322.
Another assay concerns Enterobacter cloacae. Kind of assay: Minimum inhibitory concentration required for the antibacterial activity against Enterobacter cloacae 56 US.
Assay [12] concerns Staphylococcus aureus. Kind of assay: Minimum inhibitory concentration required for the antibacterial activity against Staphylococcus aureus 25463.
The test system of assay [13] is Staphylococcus aureus. Put plainly: Minimum inhibitory concentration required for the antibacterial activity against Staphylococcus aureus 25470.
In assay [14] the test system is Escherichia coli. Kind of assay: Minimum inhibitory concentration required for the antibacterial activity against Escherichia coli F14.
Assay [15] deals with Staphylococcus aureus. Kind of assay: Minimum inhibitory concentration required for the antibacterial activity against Staphylococcus aureus 90 Innsbruck.
Assay [16] concerns Enterococcus faecalis. Kind of assay: Minimum inhibitory concentration required for the antibacterial activity against Streptococcus faecalis 113.
For assay [17], the system named is Klebsiella. Kind of assay: Minimum inhibitory concentration required for the antibacterial activity against Klebsiella 1852.
The next assay has as its system Clostridium butyricum. Kind of assay: Minimum inhibitory concentration required for the antibacterial activity against Clostridium butyricum.
The next assay deals with Pseudomonas aeruginosa. Kind of assay: Minimum inhibitory concentration required for the antibacterial activity against Pseudomonas aeruginosa 7053.
The subject of a further assay is Proteus vulgaris. Put plainly: Minimum inhibitory concentration required for the antibacterial activity against Proteus vulgaris 9023.

Structures are written as SMILES.

For `C[C@@H](O)[C@H]1C(=O)N2C(C(=O)[O-])=C(C(C)(C)C)O[C@H]12.[K+]`, the MIC (in general, the lowest concentration that inhibits growth of the organism) worked out at 64 µg/mL against Serratia; 2 µg/mL in the assay on Providencia rettgeri; 1.56 µg/mL in the assay with Staphylococcus aureus [1]; 2 µg/mL in assay [2]; 4 µg/mL in the assay with Klebsiella [3]; 0.12 µg/mL against Staphylococcus aureus [4]. For the same compound, the minimum inhibitory concentration (MIC) against Bacteroides fragilis [5] stood at 1 µg/mL; against Enterococcus faecalis [6] it was 2 µg/mL; in the assay with Clostridium perfringens [7] it was 0.5 µg/mL; in assay [8], 4 µg/mL; against Bacteroides fragilis [9] it was 2 µg/mL; in the assay with Clostridium perfringens [10], 1 µg/mL. Also, the MIC with Escherichia coli [11] was 2 µg/mL; against Enterobacter cloacae, 16 µg/mL; in the assay with Staphylococcus aureus [12], 1.56 µg/mL; in the assay with Staphylococcus aureus [13], 50 µg/mL; against Escherichia coli [14] it was 16 µg/mL; in the assay on Staphylococcus aureus [15] it was ≤ 0.78 µg/mL. Besides, the MIC is 16 µg/mL with Enterococcus faecalis [16]; 16 µg/mL with Klebsiella [17]; 2 µg/mL in the assay with Clostridium butyricum; > 128 µg/mL in the assay on Pseudomonas aeruginosa; 1 µg/mL in the assay on Proteus vulgaris.
